Common to all, as to format: in vivo, human
Assay [1] concerns optic neuropathy or congenital optic atrophy. Put plainly: Other ACE inhibitors in patients with the same optic neuropathy or congenital optic atrophy as in Examples 1 to 5. The note with it: patients as in Examples 1 to 5, similar procedures; present tense, no data. As to the method: Fosinoprilate, trandolaprilate, moexiprilate, quinaprilate, enalaprilate, perindoprilate and benazeprilate, as well as captopril and lisinopril are also tested in patients having the same optic neuropathy or congenital optic atrophy as in Examples 1 to 5 using similar procedures.

Assay [2] relates to dominant recessive congenital optic atrophy. Put plainly: Visual acuity after treatment in patients with dominant recessive congenital optic atrophy. Particulars: 2 patients; eye drops 2% (w/v), 2 times per day for 3 months. As for the experimental part:
2 patients that have dominant recessive congenital optic atrophy had bad visual acuity.
These 2 patients were treated with eye drops containing 2% (w/v) ramiprilate 2 times per day for a duration of 3 months.

For assay [3], the system named is central artery occlusion of the retina. Put plainly: Visual acuity after treatment in patients with central artery occlusion of the retina. As to the method: FIG. 5 is a fundus photograph of patient four before treatment.
One was administered 2% (w/v) ramprilate in an eye drop formulation twice a day for 3 months, while the other was administered 2% (w/v) ramprilate in via an intravitreal injection ramiprilate in a quantity of 0.1 to 0.2 ml, which was injected once every 15 days for a total of three injections.

Assay [4] relates to bilateral asymmetric anterior optic neuropathy ischemia. The assay is described as follows: Visual acuity after treatment in a patient with anterior optic neuropathy ischemia. The note with it: patient three; intravitreal 2% (w/v), 0.1 to 0.2 ml, once every 15 days, three injections; 1/10 in both eyes prior to treatment. As for the experimental part: FIGS. 3 and 4 show a fluoangiography of MM before treatment.
MM was administered an intravitreal injection of 2% (w/v) ramiprilate in a quantify of 0.1 to 0.2 ml, which was injected once every 15 days for a total of three injections. The visual acuity was then taken and was 5/10 for both eyes.

The subject of assay [5] is Leber's optic neuropathy. The assay is described as follows: Visual acuity after treatment in patients with Leber's optic neuropathy. The note with it: intravitreal 2% (w/v), 0.1 to 0.2 ml, once every 15 days, three injections. As for the experimental part:
Patient two has Leber's optic neuropathy with a visual acuity of 1/20 in the right eye and zero in the left eye prior to treatment.
An intraocular injection (intravitreal) of 2% (w/v) ramiprilate in a quantify of 0.1 to 0.2 ml, which was injected once every 15 days for a total of three injections. The visual acuity was measured after this treatment. The results of 2/10 in the right eye and 1/20 in the left eye were achieved,
Patient one has Leber's optic neuropathy and had only bright perceptions in two eyes. Visual acuity was measured prior to treatment.
An intraocular injection (intravitreal) of 2% (w/v) ramiprilate in a quantity of 0.1 to 0.2 ml, which was infected once every 15 days for a total of three injections. The visual acuity was measured after this treatment. The visual acuity was 2/10 for both eyes.

Assay [6] has as its system toxication by ingestion of methyl alcohol. The assay is described as follows: Visual acuity after treatment in patients with toxication by ingestion of methyl alcohol. As to the method: 2 patients (SR and WW) suffering from toxication by ingestion of methyl alcohol has bad visual acuity. FIG. 6 is a fluoangiography of SR prior to treatment. FIG. 7 is an optical coherence tomography scan of SR before treatment.
One patient was administered 2% (w/v) ramprilate in an eye drop formulation twice a day for 3 months, while the other patient was administered 2% (w/v) ramprilate in via an intravitreal injection ramiprilate in a quantity of 0.1 to 0.2 ml, which was injected once every 15 days for a total of three injections.

SMILES strings stand for the structures.

As for `C[C@H](N[C@@H](CCc1ccccc1)C(=O)O)C(=O)N1Cc2ccccc2C[C@H]1C(=O)O` [quinaprilate], in assay [1], the visual acuity result is listed as “improvement in visual acuity”.
Turning to `C[C@H](CS)C(=O)N1CCC[C@H]1C(=O)O` [captopril], in assay [1], the visual acuity result is recorded as “improvement in visual acuity”.
Still for that read-out and setting: to `COc1cc2c(cc1OC)CN(C(=O)[C@H](C)N[C@@H](CCc1ccccc1)C(=O)O)[C@H](C(=O)O)C2` [moexiprilate] belongs “improvement in visual acuity”; to `O=C(O)CN1C(=O)[C@@H](N[C@@H](CCc2ccccc2)C(=O)O)CCc2ccccc21` [benazeprilate], “improvement in visual acuity”.
Still for that read-out and setting: to `O=C(O)[C@@H]1C[C@@H](C2CCCCC2)CN1C(=O)CP(=O)(O)CCCCc1ccccc1` [Fosinoprilate, fosinoprilate] belongs “improvement in visual acuity”.
For the compound `C[C@H](N[C@@H](CCc1ccccc1)C(=O)O)C(=O)N1CCC[C@H]1C(=O)O` [enalaprilate], in assay [1], the visual acuity result is on record as “improvement in visual acuity”.
Still for that read-out and setting: to `NCCCC[C@H](N[C@@H](CCc1ccccc1)C(=O)O)C(=O)N1CCC[C@H]1C(=O)O` [lisinopril] belongs “improvement in visual acuity”.
Take `CC(NC(CCc1ccccc1)C(=O)O)C(=O)N1C(C(=O)O)CC2CCCC21` (stereo not drawn) [ramiprilate]: the “vision as indicated by visual acuity” value in assay [2] was “greatly improved”; in assay [3] (one patient (alpha), eye drop formulation 2% (w/v) twice a day for 3 months), “improvement in vision”; in assay [3] (other patient (alpha), intravitreal 2% (w/v), 0.1 to 0.2 ml, once every 15 days, three injections), “improvement in vision”; in assay [6] (one patient (beta), eye drop formulation 2% (w/v) twice a day for 3 months) it was “improvement in vision”; in assay [6] (other patient (beta), intravitreal 2% (w/v), 0.1 to 0.2 ml, once every 15 days, three injections) it was “improvement in vision”. For the same compound, the “visual acuity, both eyes, after treatment” value was 5/10 in assay [4] and 2/10 in assay [5] (patient one, only bright perceptions in two eyes before). For the same compound, the “visual acuity, right eye, after treatment” value in assay [5] (patient two, 1/20 prior to treatment) was 2/10. Besides, the “visual acuity, left eye, after treatment” value in assay [5] (patient two, zero prior to treatment) is 1/20.
Consider `CCC[C@H](N[C@@H](C)C(=O)N1[C@H](C(=O)O)C[C@@H]2CCCC[C@@H]21)C(=O)O` [perindoprilate], for which the visual acuity result in assay [1] is “improvement in visual acuity”.
The same measure, in the same setting: to `C[C@H](N[C@@H](CCc1ccccc1)C(=O)O)C(=O)N1[C@H](C(=O)O)C[C@H]2CCCC[C@@H]21` [trandolaprilate] belongs “improvement in visual acuity”.
